In patent publication US10836764B2, “5-HT2C receptor agonists and compositions and methods of use” (Arena Pharmaceuticals, Inc., priority 2016, dated 2020):
Read-outs that look alike come from different tables or passages of the source.

Legend:
5-HT2C receptor [1] = target: T1, 5-HT2C receptor (Homo sapiens (Human), UniProt P28335); assay: DOI radioligand binding assay, 5-HT2C
Description: (§1) For the compounds of Table A, the following procedure was used. HEK293 cells stably expressing recombinant 5-HT2 receptors were harvested, suspended in ice-cold phosphate buffered saline, pH 7.4 (PBS), and then centrifuged at 48,000 g for 20 min at 4° C. The resulting cell pellet was then re-suspended in wash buffer containing 20 mM HEPES, pH 7.4 and 0.1 mM EDTA, homogenized on ice using a Brinkman Polytron, and centrifuged (48,000 g for 20 min at 4° C.). The pellet was then resuspended in 20 mM HEPES, pH 7.4, homogenized on ice, and centrifuged (48,000 g for 20 min at 4° C.). Crude membrane pellets were stored at −80° C. until used for radioligand binding assays.
(§2) For the compounds of Table A, the following procedure was used. […] Experiments comprised addition of 95 μL of assay buffer (20 mM HEPES, pH 7.4, 10 mM MgCl2), 50 μL of membranes, 50 μL of radioligand stock, and 5 μL of test compound diluted in assay buffer to 96-well microtiter plates, which were then incubated for 1 h at room temperature. Assay incubations were terminated by rapid filtration through PerkinElmer F/C filtration plates under reduced pressure using a 96-well Packard filtration apparatus, followed by washing three times with ice cold assay buffer. Plates were then dried at 45° C. for a minimum of 2 h. Finally, 25 μL of BetaScint™ scintillation cocktail was added to each well and the plates were counted in a Packard TopCount® scintillation counter. In each competition study, test compounds were dosed at ten concentrations with triplicate determinations at each test concentration.

5-HT2B receptor [2] = target: T2, 5-HT2B receptor (Homo sapiens (Human), UniProt P41595); assay: DOI radioligand binding assay, 5-HT2B; conditions: [125I]DOI competition, HEK293 cell membranes
T2 sequence (P41595 whole entry): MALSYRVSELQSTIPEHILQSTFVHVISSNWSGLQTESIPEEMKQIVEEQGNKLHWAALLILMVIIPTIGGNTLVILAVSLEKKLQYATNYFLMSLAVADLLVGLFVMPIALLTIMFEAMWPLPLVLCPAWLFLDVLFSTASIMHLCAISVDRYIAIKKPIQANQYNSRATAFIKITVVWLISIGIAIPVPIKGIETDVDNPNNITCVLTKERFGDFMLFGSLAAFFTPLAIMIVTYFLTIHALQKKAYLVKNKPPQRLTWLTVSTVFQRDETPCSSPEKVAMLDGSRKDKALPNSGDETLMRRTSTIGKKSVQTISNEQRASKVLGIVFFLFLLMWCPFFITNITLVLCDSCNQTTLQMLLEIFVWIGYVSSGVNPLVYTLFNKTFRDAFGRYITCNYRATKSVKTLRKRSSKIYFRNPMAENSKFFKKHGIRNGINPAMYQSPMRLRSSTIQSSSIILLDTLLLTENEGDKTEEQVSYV
Description: as §1, §2

5-HT2C receptor [3] = target: T1, 5-HT2C receptor; assay: IP accumulation assay, 5-HT2C; assay type: cell-based
Description: (§3) HEK293 cells expressing recombinant 5-HT2 receptors were added to sterile poly-D-lysine-coated 96-well microtiter plates (35,000 cells/well) and labeled with 0.6 μCi/well of [^3H]inositol in myoinositol-free DMEM for 18 h. Unincorporated [^3H]inositol was removed by aspiration and replaced with fresh myoinositol-free DMEM supplemented with LiCl (10 mM final) and pargyline (10 μM final). Serially diluted test compounds were then added and incubation was conducted for 2 h at 37° C. (5-HT2B, and 5-HT2A) and RT (5-HT2C). Incubations were then terminated by lysing cells with the addition of ice-cold 0.1 M formic acid followed by freezing at −80° C. After thawing, total [^3H]inositol phosphates were resolved from [^3H]inositol using AG1-X8 ion exchange resin (Bio-Rad) and [^3H]inositol phosphates were measured by scintillation counting using a Perkin Elmer TopCount® scintillation counter. All EC50 determinations were performed using 10 different concentrations and triplicate determinations were made at each test concentration.

5-HT2B receptor [4] = target: T2, 5-HT2B receptor; assay: IP accumulation assay, 5-HT2B; assay type: cell-based
Description: as §3

[5] = add on treatment, non-depressed patients with poorly controlled epilepsy; cited from earlier work
[6] = Food intake in the male Sprague Dawley rat; assay type: in vivo; conditions: PO 1, 2 or 5 mg/kg, 1 hour following administration, relative to placebo
Description: Male Sprague Dawley rats (225-300 g) were housed three per cage in a temperature and humidity controlled environment (12 h:12 h light:dark cycle, lights on at 0600 h). At 1600 h on the day before the test, rats were placed in fresh cages and food was removed. On test day, rats were placed into individual cages with grid floors at 1000 h with no access to food. At 1130 h, rats (n=8) were administered either vehicle (20% hydroxypropyl-β-cyclodextrin) or test compound via oral gavage (PO, 1 mL/kg, with an amount of 1 mg/kg, 2 mg/kg or 5 mg/kg of test compound) 30 min prior to food presentation. Food intake was measured at 60 min after drug administration (30 min after food presentation).

[7] = 10 mg BID, type 2 diabetes; cited from earlier work
[8] = patients without diabetes, cited from earlier work
[9] = cited from earlier work
[10] = cited from earlier work; remark: listed apart in the source
[11] = patients with type 2 diabetes, BID
[12] = patients without type 2 diabetes
[13] = pivotal phase 3 program, up to two years

T1 sequence (P28335 33-458): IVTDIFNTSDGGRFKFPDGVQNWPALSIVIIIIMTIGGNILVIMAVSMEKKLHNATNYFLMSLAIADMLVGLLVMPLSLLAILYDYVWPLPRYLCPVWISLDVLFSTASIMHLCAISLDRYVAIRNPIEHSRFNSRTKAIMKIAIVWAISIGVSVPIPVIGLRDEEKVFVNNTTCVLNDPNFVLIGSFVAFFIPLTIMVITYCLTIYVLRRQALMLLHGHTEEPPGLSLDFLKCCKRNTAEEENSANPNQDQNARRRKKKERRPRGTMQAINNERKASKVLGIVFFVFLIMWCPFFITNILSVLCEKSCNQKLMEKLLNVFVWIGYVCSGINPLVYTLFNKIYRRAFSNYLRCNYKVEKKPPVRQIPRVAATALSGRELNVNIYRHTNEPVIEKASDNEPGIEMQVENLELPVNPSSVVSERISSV

CC(C)Cc1ccnc2c1CC[C@@H]1CNCCN21 [Compound 114, (R)-4-isobutyl-6,6a,7,8,9,10-hexahydro-5H-pyrazino[1,2-a][1,8]naphthyridine]
Ki (5-HT2C receptor [1]): 0.000587 µM | Ki (5-HT2B receptor [2]): 0.033 µM | EC50 (5-HT2C receptor [3]): 0.000424 µM | EC50 (5-HT2B receptor [4]): 0.351 µM

CN(C)CCCC1(c2ccc(F)cc2)OCc2cc(C#N)ccc21 (centres unmarked) [citalopram]
drop in median seizure frequency [5]: 55.6%

c1ccc(Cc2cncc3c2CC[C@@H]2CNCCN32)cc1 [Compound 175, (R)-4-benzyl-6,6a,7,8,9,10-hexahydro-5H-pyrazino[1,2-a][1,7]naphthyridine]
Ki (5-HT2C receptor [1]): 0.00052 µM | Ki (5-HT2B receptor [2]): 0.27 µM | EC50 (5-HT2C receptor [3]): 0.000622 µM | EC50 (5-HT2B receptor [4]): 19.9 µM

FC(F)(F)CCc1ccnc2c1CC[C@@H]1CNCCN21 [Compound 152, (R)-4-(3,3,3-trifluoropropyl)-6,6a,7,8,9,10-hexahydro-5H-pyrazino[1,2-a][1,8]naphthyridine]
cumulative food intake [6]: significantly decreased

C[C@H]1CNCCc2ccc(Cl)cc21 [lorcaserin, (R)-8-chloro-1-methyl-2,3,4,5-tetrahydro-1H-3-benzazepine]
reduction in HbAlc [7]: 0.9% | HOMA-IR change ([8]; one study): −0.4 | fasting insulin change ([8]; one study): −3.3 μIU/mL | mean fasting glucose change [8]: -0.2 mg/dL | patients who decreased total daily dose of medications for dyslipidemia [9, 11]: 5.5% | patients who increased use of medications for dyslipidemia [9, 11]: 3.1% | decrease in mean daily doses of sulfonylureas and thiazolidinediones ([9]; patients with type 2 diabetes): 16-24% | patients who decreased total daily dose of antihypertensive medications ([9]; patients with type 2 diabetes): 8.2% | patients who increased total daily dose of antihypertensive medications ([9]; patients with type 2 diabetes): 6.6% | patients who decreased total daily dose of antihypertensive medications [9, 12]: 2.2% | patients who decreased total daily dose of medications for dyslipidemia [9, 12]: 1.3% | patients who increased total daily dose of antihypertensive medications [9, 12]: 2.2% | patients who increased use of medications for dyslipidemia [9, 12]: 2.6% | risk of cardiac valvulopathy ([10]; phase 3 program): did not increase | patients achieved at least 5% weight loss [10, 13]: About two-thirds | patients achieved at least 10% weight loss [10, 13]: over one-third | average weight lost, of their weight ([10]; pivotal phase 3 program): about 8% | average weight loss, top quartile of patients ([10]; second phase 3 trial): 35 pounds | average weight loss, top quartile of patients, of body weight ([10]; second phase 3 trial): 16%
